This experiment deals with primary adult rat cardiomyocytes. Put plainly: Immunoblot of p21 in primary adult rat cardiomyocytes. To be noted: FIG. 1g. The experiment is classed as cell-based. The procedure: Male Spargue Dawley rats (9 weeks, 300-350 g) were anesthetised with ketamine and xylazine (100 and 10 mg/kg, respectively) with heparin added (100 UI/kg). Hearts were excised and retrogradely perfused with an oxygenated ([…]) perfusion buffer consisting of NaCl 113 mM, KCl 4.7 mM, KH2PO4 0.6 mM, Na2HPO4 0.6 mM, MgSO4-7H2O 1.2 mM, NaHCO3 12 mM, KHCO3 10 mM, HEPES 10 mM, Taurine 30 mM, phenol red 0.032 mM, D-glucose 5.5 mM, 2,3-butanedionemonoxime 10 mM, pH 7.4) for 2 minutes to wash out the blood from the coronary arteries. Then hearts were perfused with a digestion buffer (perfusion buffer supplemented with 0.1 mg/mL liberase, 0.14 mg/mL trypsine-EDTA and 12.5 μM Ca^2+) for 10-12 minutes. Hearts were then placed in a stopping buffer (perfusion buffer supplemented with 10% NBCS and 12.5 μM Ca^2+). Atria and right ventricles were removed. Left ventricles were dissected into small fragments, then subjected to successive aspirations-reflux. Digested ventricles were filtered through a 250 μm cell strainer. […]
Cells were washed briefly with ice-cold 1×PBS, scraped in 400 μL T-PER lysis buffer (ThermoFisher) supplemented with 0.1 mM phenylmethylsulphonyl fluoride (PMSF) and protease/phosphatase inhibitor cocktail tablet (ThermoFisher). […] Protein concentrations were determined with Bradford assay (Biorad) and lysates were diluted to equal concentration with lysis buffer. […]
Background: A western blot detects proteins with antibodies after separation by electrophoresis.

Take `CC(O)C(O)C1CNc2nc(N)[nH]c(=O)c2N1` (centres unmarked) [BH4, 2-amino-6-(1,2-dihydroxypropyl)-5,6,7,8-tetrahydro-3H-pteridin-4-one]: the “PA-induced p21 protein” value (PA 5 mM + BH4 10 μM) is “rescue”. In the case of `N[C@@H](Cc1ccccc1)C(=O)O` [PA, (S)-2-Amino-3-phenylpropanoic acid], for the setting “PA 5 mM, 4-hour incubation”, the p21 protein result was “selective induction”.
